Values quoted from earlier work as cited in patent EP1844782A1 (priority 2006, dated 2007).

System: EAE
Conditions: EAE (Craner et al., 2005)

## O=C1NC(=O)C(c2ccccc2)(c2ccccc2)N1 [phenytoin]
  ameliorates the inflammatory cell infiltrate in EAE: 75%
